Reference: PMC8532147, “Dual Stimuli-Responsive Dynamic Covalent Peptide Tags: Toward Sequence-Controlled Release in Tumor-like Microenvironments” (Journal of the American Chemical Society, 2021)
Entries after “also recorded” stand apart in the source; their conditions may differ. Square brackets hold non-standard residues; d marks the D form. Ends that are not written are not given here. Peptide text beside a SMILES is read from it. Phe(4-B(OH)2) = N[C@@H](Cc1ccc(B(O)O)cc1)C(=O)O; Dopa = N[C@@H](Cc1ccc(O)c(O)c1)C(=O)O

B1: OSCSO (peptide)
chain: [Dopa]SCS[Dopa]

Legend:
[1] = quoted as stand-in for the pKa of 4-borono-phenylalanine; cited from earlier work
BSCSB = experiment: Isothermal titration calorimetry (ITC), BSCSB titrated into the ligand peptide; type: binding; settings: for binding in ITC at pH 7.4 (ligand comparison): pH 7.4, 25 °C, BSCSB titrated to YSCSY or OSCSO as ligand
Experimental: The pH-reversible interactions of boronic acid and catechol groups, the formation of disulfides, as well as the responsiveness of the bis-peptide system were further investigated under different conditions (Figure 5). First, the boronic acid condensation with the complementary catechol and the thermodynamic properties were assessed under pH conditions that are relevant to physiological conditions, i.e., pH = 7.4 typical for extracellular environment of normal tissues and pH 6 for acidic intracellular compartments such as endosomes.[28] Equimolar concentrations of the reacting tags were applied to investigate the thermodynamic parameters associated with the formation of the heterodimer. DyLight488 labeled peptide (DL488-BSCSB) was synthesized by connecting the commercially available NHS-ester of this dye to the N-terminus of the BSCSB sequence to enable a microscale thermophoresis (MST) experiment, in which the dissociation constant could be determined. MST measurements were performed by titrating DL488-BSCSB (2 μM) against the complementary OSCSO peptide binding partner (76 nM to 5 mM). […] Such an improvement could be explained by the lack of electrostatic repulsion due to the presence of the electroneutral serine (at physiological pH) in the sequence. […] To assess the binding constant at physiological pH and to understand the type of complex formed, isothermal titration calorimetry (ITC) measurements were performed. The raw data were plotted as heat rate versus time at pH = 6 and 7.4. (SI, Figure S16). […]
Additionally the same amount of BSCSB solution was titrated into pure water to determine the heat of dilution for reference. As a control another sequence was checked for binding with L-tyrosines instead of L-DOPA and measured as before mentioned. […]
Figure S 16: ITC titrations performed at a) pH = 7.4 and b) 6.0, showing the heat rate signals after base line correction. No heat change different from the dilution (blank) was detected for pH = 6.0. […]

A549 cells = experiment: Cell uptake by confocal microscopy; type: cell-based, human; settings: 24 h, 37 °C
Experimental: For cell uptake studies, A549 cell line was selected, which is a model of alveolar Type II pulmonary epithelium.[35] The uptake was performed under two conditions to test the robustness of the resultant conjugate, which represents the extracellular conditions found in different stages of cancer progression.[36] Internalization of the conjugate was first studied in standard cell culture media (∼ neutral pH). A solution of DL488 ≃ TAT was applied directly to A549 cells to a final concentration of 10 μM, without any further workup or further purification. As additional controls, (1) a conjugate DL488-BSCSB ≃ OSCSO incubated with free TAT sequence and (2) a conjugate without the disulfide bridge (DL488-BSGSB) ∼ (TAT-OSCSO) where cysteine was replaced by glycine in one of the sequences were both applied at 10 μM (Figure 7a). […] Next, we proceeded to verify that the peptide tags are robust even under metastatic tumor-like microenvironment, where acidosis is a hallmark. Consequently, the low extracellular pH can result in a more invasive phenotype (Figure 7c), which is more challenging to treat.[28] First, A549 cancer cells were subjected to acute acidification to derive cells cultured at pH 6.4.[37]−[39] Thereafter DL488 ≃ TAT and controls 1 and 2 were applied at 10 μM for 24 h. […] Therefore, the linker chemistry can potentially be adopted for more invasive cancer phenotypes.
Sample preparation protocol. 20 µL of 2 mM solutions of DL488-BSCSB and either OSCSO, OSCSO and TAT or TAT-OSCSO were mixed together to obtain 40 µL of 1 mM solution of preassembled conjugate (in 10 mM phosphate buffer pH = 8 with 10% DMSO). The conjugate was subsequently oxidized by addition of 1 µL 75 mM potassium peroxymonosulfate (Oxone®) solution in 100 mM PB, pH = 7.4 to obtain its final concentration as 1.8 mM. Prepared conjugate was used directly for the cell studies without […]
Cell culture. The human cell line A549 from adenocarcinomic lung tissue (American Type Culture Collection, Manassas, VA, US) was cultured in Dulbecco's modified Eagle medium (DMEM 4.5 g/L D-Glucose, L-Glutamine; Gibco by ThermoFisher Scientific, Germany) supplemented with 10% fetal calf serum (FCS; Sigma Aldrich, Germany) and 1% Penicillin/Streptomycin (Invitrogen, Germany) at a humified atmosphere with 37 °C and 5% CO2 . Fresh culture medium was replaced every two days and cells were subcultured after reaching 80% confluence.
Evaluation of cell uptake. A549 cells were detached by TrypLE Select (Gibco by ThermoFisher Scientific, Germany) and centrifuged 5 min at 1000 rpm. […]

[2] = target: T1, DyLight488 labeled peptide DL488-BSCSB; experiment: MST; DL488-BSCSB (2 μM) held constant, OSCSO titrated (76 nM to 5 mM); 100 mM phosphate buffer pH 7.4 in the presence of TCEP; the legend of Figure 5b calls it a fluorescence quenching assay; settings: both partners purified
T1 chain: DyLight488-[Phe(4-B(OH)2)]SCS[Phe(4-B(OH)2)]

[3] = target: T1, DyLight488 labeled peptide DL488-BSCSB; experiment: MST; DL488-BSCSB (2 μM) held constant, OSCSO titrated (76 nM to 5 mM); 100 mM phosphate buffer pH 6.0 in the presence of TCEP; the legend of Figure 5b calls it a fluorescence quenching assay; settings: both partners purified
OSCSO = target: B1; experiment: ITC; BSCSB titrated to OSCSO (2Red); 100 mM phosphate buffer pH 7.4; independent binding model fit; settings: both partners purified
[4] = standard cell culture media (∼ neutral pH), 10 μM, triplicates

Cc1ccc(B(O)O)cc1 [4-methylphenylboronic acid]
pKa [1]: ~8.9

NC(=O)[C@H](Cc1ccc(O)c(O)c1)NC(=O)[C@H](CO)NC(=O)[C@H](CS)NC(=O)[C@H](CO)NC(=O)[C@@H](N)Cc1ccc(O)c(O)c1 [OSCSO] (H-[Dopa]SCS[Dopa]-NH2)
binding in ITC at pH 6 (BSCSB; pH 6.0, 100 mM phosphate buffer, 25 °C, BSCSB titrated into OSCSO, compared with heat of dilution): No heat change different from the dilution; also recorded: lack of binding
binding in ITC at pH 7.4 (ligand comparison) (BSCSB): significant heat change

(DL488-BSGSB) ∼ (TAT-OSCSO) (sidechain bridge or staple) [control 2]
uptake in A549 cells (A549 cells; acidic media pH 6.4, 10 μM, no CO2, triplicates): not internalized
uptake in A549 cells (A549 cells; [4]): no uptake was observed

DL488-BSCSB≃OSCSO+TAT (bicyclic or more) [control 1]
uptake in A549 cells (A549 cells; [4]): no uptake was observed

DL488-BSCSB≃OSCSO-TAT (bicyclic or more) [DL488 ≃ TAT, dual responsive conjugate of TAT-OSCSO and DL488-BSCSB after addition of Oxone]
uptake in A549 cells (A549 cells; [4]): significant uptake

YSCSY
binding in ITC at pH 7.4 (ligand comparison) (BSCSB): No binding

B1
Kd [2]: 1.8 ± 0.4 µM
Kd [3]: > 440 µM

B2: BSCSB (peptide)
chain: [Phe(4-B(OH)2)]SCS[Phe(4-B(OH)2)]
Kd (OSCSO): 1.8 ± 0.4 µM
stoichiometry N (OSCSO): 1.2 ± 0.1
